Reference: US20260232658A1, “AZETIDINYL BENZOXAZOLE COMPOUNDS AND THEIR USE AS MER AND AXL INHIBITORS” (DONG-A ST CO., LTD., priority 2022, published 2026)

Key:
[1] = target: T1, human MER (528-end) (Homo sapiens, UniProt Q12866); assay: HTRF kinase activity biochemical assay, MER; conditions: recombinant kinase, 10 uM ATP, 30 minutes pre-incubation; read-out: HTRF MERTK IC50;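 also: phosphorylation of a biotin-tagged tyrosine kinase substrate detected by Eu3+-cryptate antibody and streptavidin-XL665 time-resolved fluorescence, read after 1 h at room temperature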
T1 construct: human MER (528-end); purchased Carnabio, Japan
T1 sequence (Q12866 528-999 limits assumed): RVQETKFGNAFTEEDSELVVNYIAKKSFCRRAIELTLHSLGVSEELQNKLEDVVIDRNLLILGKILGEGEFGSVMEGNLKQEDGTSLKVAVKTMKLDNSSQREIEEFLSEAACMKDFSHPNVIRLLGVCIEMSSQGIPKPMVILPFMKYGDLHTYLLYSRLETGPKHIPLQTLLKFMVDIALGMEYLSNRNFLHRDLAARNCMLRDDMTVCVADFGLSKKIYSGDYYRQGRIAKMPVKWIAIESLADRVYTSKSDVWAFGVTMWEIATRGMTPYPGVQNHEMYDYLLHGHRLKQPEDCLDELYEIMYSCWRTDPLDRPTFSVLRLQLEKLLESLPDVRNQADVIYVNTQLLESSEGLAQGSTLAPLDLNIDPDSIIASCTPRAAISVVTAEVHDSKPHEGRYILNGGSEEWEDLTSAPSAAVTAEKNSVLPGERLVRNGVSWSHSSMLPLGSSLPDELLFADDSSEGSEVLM

[2] = target: T2, human AXL (473-end) (Homo sapiens, UniProt P30530); assay: HTRF kinase activity biochemical assay, AXL; conditions: recombinant kinase, 10 uM ATP, 30 minutes pre-incubation; read-out: HTRF AXL IC50;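 also: phosphorylation of a biotinylated tyrosine kinase substrate detected via Eu3+-cryptate anti-TK antibody and streptavidin-XL665, fluorescence read after a 1 h incubation at room temperature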
T2 construct: human AXL (473-end); purchased SignalChem, Canada
T2 sequence (P30530 473-894 limits assumed): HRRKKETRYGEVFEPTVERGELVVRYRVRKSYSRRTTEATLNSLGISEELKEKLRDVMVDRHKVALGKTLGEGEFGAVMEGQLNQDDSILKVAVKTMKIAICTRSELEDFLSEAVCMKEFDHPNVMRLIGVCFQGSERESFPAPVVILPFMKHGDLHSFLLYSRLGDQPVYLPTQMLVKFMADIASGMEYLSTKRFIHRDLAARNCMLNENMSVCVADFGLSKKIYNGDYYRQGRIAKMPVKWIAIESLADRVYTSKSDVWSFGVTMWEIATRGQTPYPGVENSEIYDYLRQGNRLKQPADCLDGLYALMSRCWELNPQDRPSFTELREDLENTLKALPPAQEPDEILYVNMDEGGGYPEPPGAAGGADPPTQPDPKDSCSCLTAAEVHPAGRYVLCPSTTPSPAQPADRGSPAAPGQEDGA

[3] = target: T3, TYRO3 (455-end) (Homo sapiens, UniProt Q06418); assay: HTRF kinase activity biochemical assay, TYRO3; conditions: recombinant kinase, 10 uM ATP, 30 minutes pre-incubation; read-out: HTRF TYRO IC50;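 also: biotinylated tyrosine kinase substrate phosphorylation detected via streptavidin-XL665 and Eu3+-cryptate anti-phospho antibody time-resolved fluorescence, read after 1 h detection at room temperature, 384-well format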
T3 construct: TYRO3 (455-end); purchased SignalChem, Canada
T3 sequence (Q06418 455-890 limits assumed): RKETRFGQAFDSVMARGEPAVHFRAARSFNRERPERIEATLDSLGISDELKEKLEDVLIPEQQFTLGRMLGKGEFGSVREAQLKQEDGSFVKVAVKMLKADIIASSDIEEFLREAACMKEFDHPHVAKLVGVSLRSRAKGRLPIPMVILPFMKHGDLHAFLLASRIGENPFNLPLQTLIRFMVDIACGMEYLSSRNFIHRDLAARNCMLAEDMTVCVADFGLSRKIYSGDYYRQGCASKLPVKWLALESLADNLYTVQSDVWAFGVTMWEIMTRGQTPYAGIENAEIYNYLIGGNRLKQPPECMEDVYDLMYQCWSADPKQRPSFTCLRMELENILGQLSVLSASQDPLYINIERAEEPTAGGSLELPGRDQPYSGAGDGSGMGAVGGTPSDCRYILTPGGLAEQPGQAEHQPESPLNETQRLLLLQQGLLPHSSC

Structure (SMILES) | IC50 [1] | IC50 [2] | IC50 [3]
Cn1cc(Nc2ncc(C3CN(c4nc5ccc(CC(=O)N6CCC[C@H]6CO)cc5o4)C3)nc2C(N)=O)cn1 [Example 66, 6-[1-(6-{2-[(2S)-2-(hydroxymethyl)pyrrolidin-1-yl]-2-oxoethyl}-1,3-benzoxazol-2-yl)azetidin-3-yl]-3-[(1-methyl-1H-pyrazol-4-yl)amino]pyrazine-2-carboxamide] | 2 nM | 3 nM | 2900 nM
Cn1cc(Nc2ncc(C3CN(c4nc5ccc(O[C@H]6CCOC6)cc5o4)C3)nc2C(N)=O)cn1 [Example 69, 3-[(1-methyl-1H-pyrazol-4-yl)amino]-6-[1-(6-{[(3S)-oxolan-3-yl]oxy}-1,3-benzoxazol-2-yl)azetidin-3-yl]pyrazine-2-carboxamide] | 2 nM | 8 nM | 570 nM
CO[C@H]1CCN(C(=O)Cc2ccc3nc(N4CC(c5cnc(Nc6cnn(C)c6)c(C(N)=O)n5)C4)oc3c2)C1 [Example 70, 6-[1-(6-{2-[(3S)-3-methoxypyrrolidin-1-yl]-2-oxoethyl}-1,3-benzoxazol-2-yl)azetidin-3-yl]-3-[(1-methyl-1H-pyrazol-4-yl)amino]pyrazine-2-carboxamide] | 3 nM | 20 nM | > 12500 nM
COC[C@H]1CCCN1C(=O)Cc1ccc2nc(N3CC(c4cnc(Nc5cnn(C)c5)c(C(N)=O)n4)C3)oc2c1 [Example 71, 6-[1-(6-{2-[(2R)-2-(methoxymethyl)pyrrolidin-1-yl]-2-oxoethyl}-1,3-benzoxazol-2-yl)azetidin-3-yl]-3-[(1-methyl-1H-pyrazol-4-yl)amino]pyrazine-2-carboxamide] | 2 nM | 4 nM | 3730 nM
Cn1cc(Nc2ncc(C3CN(c4nc5ccc(OCC(=O)N6CCC6)cc5o4)C3)nc2C(N)=O)cn1 [Example 73, 6-(1-{6-[2-(azetidin-1-yl)-2-oxoethoxy]-1,3-benzoxazol-2-yl}azetidin-3-yl)-3-[(1-methyl-1H-pyrazol-4-yl)amino]pyrazine-2-carboxamide] | 2 nM | 9 nM | 1700 nM
Cc1ccc2nc(N3CC(c4cnc(Nc5cn[nH]c5)c(C(N)=O)n4)C3)oc2c1 [Example 74, 6-[1-(6-methyl-1,3-benzoxazol-2-yl)azetidin-3-yl]-3-[(1H-pyrazol-4-yl)amino]pyrazine-2-carboxamide] | 2 nM | 4 nM | 130 nM
Cn1cc(Nc2ncc(C3CN(c4nc5ccc(C(=O)N6CCC[C@@H]6C(C)(C)O)cc5o4)C3)nc2C(N)=O)cn1 [Example 75, 6-(1-{6-[(2R)-2-(2-hydroxypropan-2-yl)pyrrolidine-1-carbonyl]-1,3-benzoxazol-2-yl}azetidin-3-yl)-3-[(1-methyl-1H-pyrazol-4-yl)amino]pyrazine-2-carboxamide] | < 1 nM | 3 nM | 65 nM
CN1CCCC(Oc2ccc3nc(N4CC(c5cnc(Nc6cnn(C)c6)c(C(N)=O)n5)C4)oc3c2)C1=O (stereo not drawn) [Example 76, 6-(1-{6-[(1-methyl-2-oxopiperidin-3-yl)oxy]-1,3-benzoxazol-2-yl}azetidin-3-yl)-3-[(1-methyl-1H-pyrazol-4-yl)amino]pyrazine-2-carboxamide] | < 1 nM | 2 nM | 240 nM
C=CCOP(=O)(OCC=C)OC(C)(C)CCOc1ccc2nc(N3CC(c4cnc(Nc5cnn(C)c5)c(C(N)=O)n4)C3)oc2c1 [Example 77A, 4-{[2-(3-f{6-carbamoyl-5-[(1-methyl-1H-pyrazol-4-yl)amino]pyrazin-2-yl}azetidin-1-yl)-1,3-benzoxazol-6-yl]oxy}-2-methylbutan-2-yl diprop-2-en-1-yl phosphate] | 2 nM | 6 nM | 250 nM
Cc1ccc2nc(N3CC(c4ccc(Nc5cnn(C)c5)c(C(N)=O)n4)C3)oc2c1 [Example 78, 6-[1-(6-methyl-1,3-benzoxazol-2-yl)azetidin-3-yl]-3-[(1-methyl-1H-pyrazol-4-yl)amino]pyridine-2-carboxamide] | 2 nM | 6 nM | 270 nM
Cn1cc(Nc2ncc(C3CN(c4nc5ccc(OC6CCCC6O)cc5o4)C3)nc2C(N)=O)cn1 (stereo not drawn) [Example 79, 6-(1-{6-[(2-hydroxycyclopentyl)oxy]-1,3-benzoxazol-2-yl}azetidin-3-yl)-3-[(1-methyl-1H-pyrazol-4-yl)amino]pyrazine-2-carboxamide] | < 1 nM | 2 nM | 66 nM
Cn1cc(Nc2ncc(C3CN(c4nc5ccc(CC(=O)N6CCC[C@@H]6C(F)(F)F)cc5o4)C3)nc2C(N)=O)cn1 [Example 81, 3-[(1-methyl-1H-pyrazol-4-yl)amino]-6-[1-(6-{2-oxo-2-[(2R)-2-(trifluoromethyl)pyrrolidin-1-yl]ethyl}-1,3-benzoxazol-2-yl)azetidin-3-yl]pyrazine-2-carboxamide] | 1 nM | 3 nM | 1070 nM
Cc1cnc(COc2ccc3nc(N4CC(c5cnc(Nc6cnn(C)c6)c(C(N)=O)n5)C4)oc3c2)s1 [Example 82, 3-[(1-methyl-1H-pyrazol-4-yl)amino]-6-(1-{6-[(5-methyl-1,3-thiazol-2-yl)methoxy]-1,3-benzoxazol-2-yl}azetidin-3-yl)pyrazine-2-carboxamide] | < 1 nM | 3 nM | 150 nM
CN(C)C(=O)COc1ccc2nc(N3CC(c4ccc(Nc5cnn(C)c5)c(C(N)=O)n4)C3)oc2c1 [Example 83, 6-(1-{6-[2-(dimethylamino)-2-oxoethoxy]-1,3-benzoxazol-2-yl}azetidin-3-yl)-3-[(1-methyl-1H-pyrazol-4-yl)amino]pyridine-2-carboxamide] | 4 nM | 26 nM | 6800 nM
Cn1cc(Nc2ccc(C3CN(c4nc5ccc(OCCC(C)(C)O)cc5o4)C3)nc2C(N)=O)cn1 [Example 84, 6-{1-[6-(3-hydroxy-3-methylbutoxy)-1,3-benzoxazol-2-yl]azetidin-3-yl}-3-[(1-methyl-1H-pyrazol-4-yl)amino]pyridine-2-carboxamide] | 2 nM | 7 nM | 1370 nM
Cn1cc(Nc2ccc(C3CN(c4nc5ccc(O)cc5o4)C3)nc2C(N)=O)cn1 [Example 84A, 6-[1-(6-hydroxy-1,3-benzoxazol-2-yl)azetidin-3-yl]-3-[(1-methyl-1H-pyrazol-4-yl)amino]pyridine-2-carboxamide] | 14 nM | 33 nM | 2070 nM
Cc1nnc(COc2ccc3nc(N4CC(c5cnc(Nc6cnn(C)c6)c(C(N)=O)n5)C4)oc3c2)o1 [Example 86, 6-(1-{6-[(5-methyl-1,3,4-oxadiazol-2-yl)methoxy]-1,3-benzoxazol-2-yl}azetidin-3-yl)-3-[(1-methyl-1H-pyrazol-4-yl)amino]pyrazine-2-carboxamide] | 5 nM | 11 nM | 63 nM
Cn1cc(Nc2ncc(C3CN(c4nc5ccc(OCC(=O)C6CC6)cc5o4)C3)nc2C(N)=O)cn1 [Example 87, 6-{1-[6-(2-cyclopropyl-2-oxoethoxy)-1,3-benzoxazol-2-yl]azetidin-3-yl}-3-[(1-methyl-1H-pyrazol-4-yl)amino]pyrazine-2-carboxamide] | 1 nM | 5 nM | 330 nM
Cn1cc(Nc2ncc(C3CN(c4nc5ccc(-c6ccc(O)cc6)cc5o4)C3)nc2C(N)=O)cn1 [Example 88, 6-{1-[6-(4-hydroxyphenyl)-1,3-benzoxazol-2-yl]azetidin-3-yl}-3-[(1-methyl-1H-pyrazol-4-yl)amino]pyrazine-2-carboxamide] | < 1 nM | 3 nM | 51 nM
